Test results: the NIST ThermoML archive (doi:10.1021/je060271a)
± gives the expanded uncertainty stated by the source.

Conditions: 343.15 K, Liquid, Vibrating tube method

CCCCCCC(=O)OCC(COC(=O)CCCCCC)(COC(=O)CCCCCC)COC(=O)CCCCCC [pentaerythritol tetraheptanoate]
Conditions	mass density [kg/m3]
20585 kPa	955.2 ± 1.2
20620 kPa	955.3 ± 1.2
20649 kPa	955.4 ± 1.2
20679 kPa	955.3 ± 1.2
20691 kPa	955.3 ± 1.2
20708 kPa	955.3 ± 1.2
20744 kPa	955.3 ± 1.2
20773 kPa	955.5 ± 1.2
20781 kPa	955.3 ± 1.2
20803 kPa	955.4 ± 1.2
20839 kPa	955.3 ± 1.2
20869 kPa	955.5 ± 1.2
20905 kPa	955.6 ± 1.2
20935 kPa	955.4 ± 1.2
20965 kPa	955.6 ± 1.2
20996 kPa	955.5 ± 1.2
21033 kPa	955.5 ± 1.2
21064 kPa	955.6 ± 1.2
21069 kPa	955.7 ± 1.2
21096 kPa	955.6 ± 1.2
21102 kPa	955.7 ± 1.2
21133 kPa	955.6 ± 1.2
21165 kPa	955.6 ± 1.2
21196 kPa	955.7 ± 1.2
21229 kPa	955.8 ± 1.2
21267 kPa	955.7 ± 1.2
21295 kPa	955.7 ± 1.2
21320 kPa	955.9 ± 1.2
21350 kPa	955.8 ± 1.2
21376 kPa	955.8 ± 1.2
21401 kPa	955.8 ± 1.2
21432 kPa	955.8 ± 1.2
21456 kPa	955.9 ± 1.2
21483 kPa	955.8 ± 1.2
21509 kPa	955.8 ± 1.2
21540 kPa	955.9 ± 1.2
21565 kPa	955.9 ± 1.2
21591 kPa	955.9 ± 1.2
21622 kPa	956 ± 1.2
21647 kPa	956 ± 1.2
21678 kPa	955.9 ± 1.2
21704 kPa	955.9 ± 1.2
21730 kPa	956.1 ± 1.2
21760 kPa	956 ± 1.2
21786 kPa	956.1 ± 1.2
21813 kPa	956.2 ± 1.2
21840 kPa	956.1 ± 1.2
21872 kPa	956.1 ± 1.2
21898 kPa	956.2 ± 1.2
21930 kPa	956.1 ± 1.2
21956 kPa	956 ± 1.2
21983 kPa	956.1 ± 1.2
22010 kPa	956.2 ± 1.2
22042 kPa	956.2 ± 1.2
22069 kPa	956.3 ± 1.2
22096 kPa	956.1 ± 1.2
22127 kPa	956.3 ± 1.2
22129 kPa	956.2 ± 1.2
22156 kPa	956.3 ± 1.2
22161 kPa	956.2 ± 1.2
22190 kPa	956.3 ± 1.2
22195 kPa	956.4 ± 1.2
22217 kPa	956.2 ± 1.2
22244 kPa	956.3 ± 1.2
22272 kPa	956.3 ± 1.2
22300 kPa	956.3 ± 1.2
22332 kPa	956.4 ± 1.2
22360 kPa	956.5 ± 1.2
22388 kPa	956.4 ± 1.2
22421 kPa	956.4 ± 1.2
22449 kPa	956.5 ± 1.2
22478 kPa	956.4 ± 1.2
22512 kPa	956.6 ± 1.2
22540 kPa	956.6 ± 1.2
22570 kPa	956.6 ± 1.2
22599 kPa	956.7 ± 1.2
22633 kPa	956.5 ± 1.2
22661 kPa	956.6 ± 1.2
22690 kPa	956.6 ± 1.2
22704 kPa	956.7 ± 1.2
22724 kPa	956.6 ± 1.2
22740 kPa	956.7 ± 1.2
22753 kPa	956.8 ± 1.2
22782 kPa	956.6 ± 1.2
22817 kPa	956.7 ± 1.2
22846 kPa	956.8 ± 1.2
22874 kPa	956.6 ± 1.2
22910 kPa	956.7 ± 1.2
22939 kPa	956.9 ± 1.2
22970 kPa	956.7 ± 1.2
23000 kPa	956.8 ± 1.2
23030 kPa	956.9 ± 1.2
23066 kPa	956.9 ± 1.2
23095 kPa	956.9 ± 1.2
23125 kPa	956.9 ± 1.2
23162 kPa	957 ± 1.2
23191 kPa	957 ± 1.2
23227 kPa	957 ± 1.2
23257 kPa	957.1 ± 1.2
23288 kPa	957 ± 1.2
23318 kPa	957 ± 1.2
23355 kPa	957 ± 1.2
23387 kPa	957.1 ± 1.2
23417 kPa	957.1 ± 1.2
23454 kPa	957.1 ± 1.2
23484 kPa	957.2 ± 1.2
23516 kPa	957.2 ± 1.2
23552 kPa	957.1 ± 1.2
23584 kPa	957.2 ± 1.2
23615 kPa	957.2 ± 1.2
23646 kPa	957.2 ± 1.2
23681 kPa	957.3 ± 1.2
